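Test compounds were applied to cells in 96-well plates for 48 hours at 5 doses. GI50: concentration for 50% inhibition of growth. The concentration for full growth arrest is given as TGI.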
The molecules below were run on ACHN renal (assay: NCI-60 cell line screen, 48 h).

Row | Compound | TGI | GI50
1 | CC(=O)C1=C(C)N(c2ccc(C)cc2)C2(O)C=CC(=O)C3C(=O)N(c4ccccc4)C(=O)C132 (centres undefined) | 40.4 µM | 
2 | COc1ccc2c(c1)[nH]c1c(/C=C/c3ccccc3)nccc12 | 28.4 µM | 
3 | Clc1cc2c(cc1Cl)CC(NCCN1CCCC1)CC2 (centres undefined) | 31.8 µM | 
4 | [N-]=[N+]=CC(=O)c1ccccc1C#CCCc1ccccc1 | 68.8 µM | 
5 | CCN(CC(=O)O)C(=O)c1cccnc1 | > 100 µM | 
6 | NCCSC(c1ccccc1)c1ccccc1 | > 100 µM | 
7 | CCCCCCCCC/C=C/C=C/C(=O)NCC(=O)NC1C(O)C(O)C(Nc2ncnc3nc[nH]c23)OC1C(O)CO (centres undefined) |  | 14.4 nM
8 | COc1nc(C#CC2(O)CCCCC2)nc(OC)n1 | 21.9 µM | 
9 | C[C@H](CCC(=O)O)[C@H]1CC[C@@]2(C)[C@@H]3C(=O)C[C@H]4C(C)(C)[C@@H](O)CC[C@]4(C)[C@H]3C(=O)C[C@]12C | > 100 µM | 

Each molecule was assayed on HCT-116 colon (assay: NCI-60 cell line screen, 48 h).

Row | Compound | TGI | GI50
10 | CCOC(=O)C1=NN(c2ccc(C)cc2)C2=CC(C)=NN(C)C(=S)N21 | > 100 µM | 
11 | O=C(c1cccs1)N(C(=S)OC12CC3CC(CC(C3)C1)C2)c1ccccc1 | 59.3 µM | 
12 | C(=N\NC1=NCCN1)/c1ccc(-c2cn3cc(/C=N/NC4=NCCN4)ccc3n2)cc1 | > 62.4 µM | 
13 | CC1CC[C@@]2(OC1)OC1C[C@H]3[C@@H]4CC=C5CC(OC6OC(CO)C(OC7OC(CO)C(O)C(OC8OCC(O)C(O)C8O)C7OC7OC(CO)C(O)C(O)C7O)C(O)C6O)CCC5(C)[C@H]4CCC3(C)C1[C@@H]2C (some centres undefined) | 8.14 µM | 
14 | Nc1ccccc1S(=O)(=O)c1ccccc1 | > 100 µM | 
15 | Cc1c(N2C(=O)CS(=O)(=O)C2c2cccc(Oc3ccccc3)c2)c(=O)n(-c2ccccc2)n1C (centres undefined) | > 100 µM | 
16 | COc1cc2c(ccc3c4cc(OC)c(OC)cc4c[n+](C)c23)cc1O | > 60.3 µM | 
17 | CNC(=O)OCc1c(CO)nc(SC)n1C | > 100 µM | 
18 | CN(C)CC(CC1=C(CC(CN(C)C)N(C)C)CCC1)N(C)C (centres undefined) | > 100 µM | 
19 | CC12CC3OC(=O)C1COC14OC5(C2C1=O)C(O)(CCC1C4CC(O)C2(O)CC=CC(=O)C12C)C(=O)OC35C (centres undefined) | > 100 µM | 
20 | NC(=O)c1c(NC(=O)c2ccccn2)sc2c1CCC(=O)C2 | > 100 µM | 3500 nM
21 | O=c1cccccc1[O-].O=c1cccccc1[O-].[O]=[U+2]=[O] | 98.4 µM | 
22 | COc1ccc(C(=O)/C=C/c2cccc([N+](=O)[O-])c2)c(OC)c1 | 1.68 µM | 767 nM
23 | CCOC(=O)C(NC(=O)c1ccco1)(Nc1nc2ccc(OCC)cc2s1)C(F)(F)F (centres undefined) | 91.2 µM | 
24 | CCC(C)C1=C(OC(C)=O)[N+]2([O-])Oc3ccc(-c4c(OC(C)=O)c(OC(C)=O)c(-c5ccc(OC(C)=O)cc5)c(OC(C)=O)c4OC(C)=O)cc3OC2(C(C)CC)C(=O)N1OC(C)=O (centres undefined) | 22.8 µM | 
25 | O=C(O)C1C2CCC(O2)C1C(=O)Nc1cccc2cccnc12 (centres undefined) | > 100 µM | 

Row | Compound | TGI | GI50
26 | COc1cccc2c1Cc1cc(-c3ccccc3)[n+](C)n1-2 | 15.8 µM | 
27 | O=C(OCN1C(=O)C2C3C=CC(C2C1=O)C1C2C(=O)N(COC(=O)C4CCCN4)C(=O)C2C31)C1CCCN1 (centres undefined) | > 53.7 µM | 
28 | O=C(C[n+]1ccc2ccccc2c1)c1ccc2ccc3ccccc3c2c1 | 13.6 µM | 
29 | NCCCCc1cc(O)c2c(c1O)C(=O)c1ccccc1C2=O | 18.1 µM | 
30 | Cc1ccccc1C(=O)N/N=C/c1ccc(Sc2nccn2C)c([N+](=O)[O-])c1 | > 100 µM | 
31 | CCn1c(-c2ccc(N=NNc3ccc(-c4n[nH]c(=S)n4CC)cc3)cc2)n[nH]c1=S | > 100 µM | 
32 | CC(=O)C1=C(C)N(c2ccc(C)cc2)C2(O)C=CC(=O)C3C(=O)N(c4ccccc4)C(=O)C132 (centres undefined) | > 100 µM | 
33 | COc1ccc2c(c1)[nH]c1c(/C=C/c3ccccc3)nccc12 | 30.4 µM | 
34 | Clc1cc2c(cc1Cl)CC(NCCN1CCCC1)CC2 (centres undefined) | 26.3 µM | 
35 | [N-]=[N+]=CC(=O)c1ccccc1C#CCCc1ccccc1 | 48.9 µM | 
36 | CCN(CC(=O)O)C(=O)c1cccnc1 | > 100 µM | 
37 | NCCSC(c1ccccc1)c1ccccc1 | 30.9 µM | 
38 | CCCCCCCCC/C=C/C=C/C(=O)NCC(=O)NC1C(O)C(O)C(Nc2ncnc3nc[nH]c23)OC1C(O)CO (centres undefined) | > 100 µM | 2.51 nM
39 | COc1nc(C#CC2(O)CCCCC2)nc(OC)n1 | > 100 µM | 
40 | C[C@H](CCC(=O)O)[C@H]1CC[C@@]2(C)[C@@H]3C(=O)C[C@H]4C(C)(C)[C@@H](O)CC[C@]4(C)[C@H]3C(=O)C[C@]12C | > 100 µM | 

Each molecule was assayed on HOP-92 NSCLC (assay: NCI-60 cell line screen, 48 h).

Row | Compound | TGI | GI50
41 | O=C(c1cccs1)N(C(=S)OC12CC3CC(CC(C3)C1)C2)c1ccccc1 | > 100 µM | 
42 | C(=N\NC1=NCCN1)/c1ccc(-c2cn3cc(/C=N/NC4=NCCN4)ccc3n2)cc1 | 43.2 µM | 
43 | CC1CC[C@@]2(OC1)OC1C[C@H]3[C@@H]4CC=C5CC(OC6OC(CO)C(OC7OC(CO)C(O)C(OC8OCC(O)C(O)C8O)C7OC7OC(CO)C(O)C(O)C7O)C(O)C6O)CCC5(C)[C@H]4CCC3(C)C1[C@@H]2C (some centres undefined) | > 25 µM | 
44 | Nc1ccccc1S(=O)(=O)c1ccccc1 | > 100 µM | 
45 | Cc1c(N2C(=O)CS(=O)(=O)C2c2cccc(Oc3ccccc3)c2)c(=O)n(-c2ccccc2)n1C (centres undefined) | > 100 µM | 
46 | COc1cc2c(ccc3c4cc(OC)c(OC)cc4c[n+](C)c23)cc1O | > 75 µM | 
47 | CNC(=O)OCc1c(CO)nc(SC)n1C | > 100 µM | 
48 | CN(C)CC(CC1=C(CC(CN(C)C)N(C)C)CCC1)N(C)C (centres undefined) | > 100 µM | 
49 | CCC1CN(C(=O)c2ccccc2)C(Cc2c[nH]c3ccccc23)C(=O)C1CC(=O)OC (centres undefined) | > 100 µM | 
50 | CC12CC3OC(=O)C1COC14OC5(C2C1=O)C(O)(CCC1C4CC(O)C2(O)CC=CC(=O)C12C)C(=O)OC35C (centres undefined) | > 100 µM | 
51 | NC(=O)c1c(NC(=O)c2ccccn2)sc2c1CCC(=O)C2 | > 100 µM | 2.75 µM
52 | O=c1cccccc1[O-].O=c1cccccc1[O-].[O]=[U+2]=[O] | 70.6 µM | 
53 | COc1ccc(C(=O)/C=C/c2cccc([N+](=O)[O-])c2)c(OC)c1 | > 50 µM | 3.92 µM
54 | CCOC(=O)C(NC(=O)c1ccco1)(Nc1nc2ccc(OCC)cc2s1)C(F)(F)F (centres undefined) | 47.5 µM | 
55 | COc1cccc2c1Cc1cc(-c3ccccc3)[n+](C)n1-2 | 66.4 µM | 
56 | O=C(OCN1C(=O)C2C3C=CC(C2C1=O)C1C2C(=O)N(COC(=O)C4CCCN4)C(=O)C2C31)C1CCCN1 (centres undefined) | > 100 µM | 
57 | O=C(C[n+]1ccc2ccccc2c1)c1ccc2ccc3ccccc3c2c1 | 18.8 µM | 
58 | NCCCCc1cc(O)c2c(c1O)C(=O)c1ccccc1C2=O | 31.1 µM | 
59 | Cc1ccccc1C(=O)N/N=C/c1ccc(Sc2nccn2C)c([N+](=O)[O-])c1 | 88.2 µM | 
60 | CCn1c(-c2ccc(N=NNc3ccc(-c4n[nH]c(=S)n4CC)cc3)cc2)n[nH]c1=S | 7.71 µM | 
61 | CC(=O)C1=C(C)N(c2ccc(C)cc2)C2(O)C=CC(=O)C3C(=O)N(c4ccccc4)C(=O)C132 (centres undefined) | 43.1 µM | 
62 | COc1ccc2c(c1)[nH]c1c(/C=C/c3ccccc3)nccc12 | 44.4 µM | 
63 | [N-]=[N+]=CC(=O)c1ccccc1C#CCCc1ccccc1 | 63.6 µM | 
64 | CCN(CC(=O)O)C(=O)c1cccnc1 | > 100 µM | 
65 | NCCSC(c1ccccc1)c1ccccc1 | 37.2 µM | 
66 | C[C@H](CCC(=O)O)[C@H]1CC[C@@]2(C)[C@@H]3C(=O)C[C@H]4C(C)(C)[C@@H](O)CC[C@]4(C)[C@H]3C(=O)C[C@]12C | > 100 µM | 

What follows are molecules tested on SK-MEL-28 melanoma (assay: NCI-60 cell line screen, 48 h).

Row | Compound | TGI
67 | CCOC(=O)C1=NN(c2ccc(C)cc2)C2=CC(C)=NN(C)C(=S)N21 | > 100 µM
68 | O=C(c1cccs1)N(C(=S)OC12CC3CC(CC(C3)C1)C2)c1ccccc1 | > 100 µM
69 | CC1CC[C@@]2(OC1)OC1C[C@H]3[C@@H]4CC=C5CC(OC6OC(CO)C(OC7OC(CO)C(O)C(OC8OCC(O)C(O)C8O)C7OC7OC(CO)C(O)C(O)C7O)C(O)C6O)CCC5(C)[C@H]4CCC3(C)C1[C@@H]2C (some centres undefined) | > 25 µM
70 | Nc1ccccc1S(=O)(=O)c1ccccc1 | > 100 µM
71 | Cc1c(N2C(=O)CS(=O)(=O)C2c2cccc(Oc3ccccc3)c2)c(=O)n(-c2ccccc2)n1C (centres undefined) | > 100 µM
72 | COc1cc2c(ccc3c4cc(OC)c(OC)cc4c[n+](C)c23)cc1O | > 75 µM
73 | CNC(=O)OCc1c(CO)nc(SC)n1C | > 100 µM
74 | CN(C)CC(CC1=C(CC(CN(C)C)N(C)C)CCC1)N(C)C (centres undefined) | > 100 µM
